# Assay results taken from paper PMC11655065, “Antimicrobial activity of iron-depriving pyoverdines against human opportunistic pathogens” (eLife, 2024).
# Like-named read-outs stand apart in the source and are kept apart here. Square brackets hold non-standard residues; d marks the D form. Side chains are listed from the residue outwards. Peptide text beside a SMILES is read from it. * marks the point of attachment. ξ: configuration not given here. X1 = O=C(O)CCC(=O)NC1=Cc2cc(O)c(O)cc2N2C1=NCCC2C(=O)*; NH(1-OH-2-oxopiperidin-3-yl) = O=C1C(N*)CCCN1O; ξAsp(3ξ-OH) = NC(C(=O)O)C(O)C(=O)O
# Experiments:
# [1] = cited from earlier work; for iron association constant: ref Bohac et al., 2019, Shapiro and Wencewicz, 2016, Sheldon and Skaar, 2020
# A. baumannii [2] = assay: Dose–response growth inhibition in CAA medium; assay type: cell-based, Acinetobacter baumannii; details: for inhibition of A. baumannii with iron supplementation: crude pyoverdine
# Protocol: (§1) Pathogen overnight cultures were grown in either 8 mL tryptic soy broth (TSB; for the two S. aureus strains) or 8 mL lysogeny broth (LB; all other pathogens) in 50 mL tubes at 37°C and 220 rpm agitation. Following two washing steps with 0.8% NaCl, we adjusted the overnight cultures to an optical density at 600 nm (OD600) of 1. For overnights of environmental isolates, we followed the same procedure when working with low sample sizes, with the only difference being that culturing occurred at 28°C. For the large-scale screening experiments, we grew environmental isolates in 200 µL LB in 96-well plates shaken at 170 rpm. Cultures from plates were then directly used for experiments. For all main experiments (screen for bioactive pyoverdines and dose–response curves), we used CAA medium (1% casamino acids, 5 mM K2HPO4 * 3H2O,1 mM MgSO4*7 H2O, 25 mM HEPES buffer). This medium contains low levels of iron, triggering pyoverdine production ([Cunrath et al., 2016]).
# (§2) To determine the inhibition potential of crude- and HPLC-purified pyoverdines, as well as ferribactin, we subjected A. baumannii. K. pneumoniae, P. aeruginosa, and S. aureus to serially diluted extracts. For this, the extracts were dissolved in CAA medium, filter sterilized, and diluted in the same medium. Bacterial overnight cultures were grown and prepared as described above and added to a total of 200 µL medium on a 96-well plate with four replicates per extract dilution. […] We incubated the plates at 37°C statically in the plate reader and measured the OD600 every 15 min for 24 hr. Before each measurement, plates were shaken for 15 s. We repeated the experiment up to five times with different initial extract starting concentrations. This was done to ensure that the full dose response to pyoverdine was captured. Thus, sample size per individual extract concentration varied between 4 and 20 replicates. We subtracted the blank values and the background values caused by the treatment of the respective extract concentration from the measured growth data and calculated the integral (area under the growth curve) using the R package Growthcurver ([Sprouffske and Wagner, 2016]). We then expressed growth relative to the control medium, where bacteria grew in CAA without extract or antibiotic addition. Finally, we plotted extract/antibiotic concentration vs. relative growth and fitted dose–response curves (see below).
# K. pneumoniae [3] = assay: Dose–response growth inhibition in CAA medium; assay type: cell-based, Klebsiella pneumoniae
# Protocol: as §1, §2
# P. aeruginosa PAO1 = assay: Dose–response growth inhibition in CAA medium; assay type: cell-based, Pseudomonas aeruginosa; details: HPLC-purified ferribactin, concentration gradient
# Protocol: as §1, with “This medium contains low levels of iron, triggering pyoverdine production ([Cunrath et al., 2016]).” left out
# (§3) To determine the inhibition potential of crude- and HPLC-purified pyoverdines, as well as ferribactin, we subjected A. baumannii. […] We incubated the plates at 37°C statically in the plate reader and measured the OD600 every 15 min for 24 hr. […] We subtracted the blank values and the background values caused by the treatment of the respective extract concentration from the measured growth data and calculated the integral (area under the growth curve) using the R package Growthcurver ([Sprouffske and Wagner, 2016]). […]
# S. aureus JE2 = assay: Dose–response growth inhibition in CAA medium; assay type: cell-based, Staphylococcus aureus
# Protocol: as §1, with “This medium contains low levels of iron, triggering pyoverdine production ([Cunrath et al., 2016]).” left out
# as §3
# K. pneumoniae [4] = assay: Infection model: treatment of infected larvae; assay type: in vivo, Galleria mellonella
# Protocol: (§4) We tested the efficacy of pyoverdine to treat infections in larvae of the host model G. mellonella. All larvae were ordered from a local vendor (Bait Express GmbH, Basel, Switzerland) and stored without food at 16°C in the dark for up to 3 days. In a first step, we determined the mean weight of 336 final instar G. mellonella larvae (mean = 435 mg). For all subsequent experiments, we weighed the larvae and only used individuals with a mean weight ±20% (range: 340–530 mg). Larvae were immobilized on ice for 15 min, surface-sterilized with 70% ethanol, and randomly distributed to individual wells on 24-well plates. Ten larvae were used per infection–treatment combination. To inject bacteria and administer treatments, we used sterile needles (Sterican 26G, 0.45 × 12 mm [Braun]) and syringes (1 mL injekt-F [Braun]) attached to a syringe pump (New Era Pump Systems Inc, model NE-300) set to a flow rate of 5 mL/hr. For both infection and treatment delivery, a volume of 10 µL per larvae was injected between the posterior larval prolegs.
# (§5) On the pathogen side, we determined the LD50 (lethal dose, killing 50% of the larvae) for A. baumannii (1.8 * 10^5 CFU/larvae) and K. pneumoniae (8.9 * 10^5 CFU/larvae) (Figure 5—figure supplement 1). For P. aeruginosa, we use 56 CFU/larvae because all doses tested killed 100% of the larvae (Figure 5—figure supplement 1). As negative control, we administered 10 µL/larvae of sterile PBS. Following infections, larvae were individually placed in wells of 24-well plates and incubated at 37°C in the dark for 4 hr.
# (§6) On the treatment side, we used pyoverdines 3A06, 3G07, and s3b09 at three concentrations that were non-toxic for the NSC-34 cells. For this, we prepared stocks of 60 mg/mL, 30 mg/mL, and 6 mg/mL of crude pyoverdines. Since the injected treatment volume was 10 µL per larvae, the final pyoverdine concentrations were 0.6 mg, 0.3 mg, and 0.06 mg per larvae, respectively. When scaling theses concentrations to the doses used for the […] dose–response curves (Figure 4), the relative pyoverdine concentrations were 0.1, 0.05, and 0.01. Pyoverdine treatments were administered 4 hr after the infection through injections. Prior to treatment, larvae were immobilized on ice for 15 min. We also applied treatments to larvae infected with sterile PBS to quantify potential negative effects of the treatment in the absence of an infection. Following treatment, larvae were put back to their allocated well of the 24-well plate and kept at 37°C in the dark.
# (§7) From the 12th hour post infection (hpi) onward, we regularly checked the survival of all larvae for a total of 48 hpi. Specifically, larvae were poked with a pipette tip and individuals not responding to the physical stimulation were considered dead. […]
# A. baumannii [5] = assay: Infection model: treatment of infected larvae; assay type: in vivo, Galleria mellonella; details: injected 4 hr post infection
# Protocol: as §4, §5, §6, §7
# in vitro = assay type: cell-based; details: sheep
# Protocol: To determine the hemolytic activity of pyoverdines, we quantified sheep erythrocyte hemolysis at different pyoverdine concentrations. We first centrifuged 25 mL of fresh sheep blood (Chemie Brunschwig AG, Switzerland) in a 50 mL tube at 1500 × g for 5 min at 4°C. Plasma was then gently aspirated, replaced by PBS, and tubes were gently inverted to mix. This washing procedure was repeated three times. Pyoverdines were diluted in PBS to final relative concentrations of 1, 0.5, 0.25, 0.2, 0.02, and 0.002. PBS and 0.1% Triton X-100 (Sigma-Aldrich) served as negative and positive control, respectively. 100 µL erythrocyte solution was mixed with either 100 µL pyoverdine solution or the controls in a 96-well plate in triplicates. Following an incubation at 37°C and 120 rpm for 1 hr, the plate was centrifuged at 1036 × g for 5 min at 4°C. Subsequently, 100 µL of the supernatant were transferred to a new 96-well plate. Hemoglobin release was measured at 570 nm in the plate reader and the percent hemolysis was calculated relative to the positive control [% hemolysis = (OD570 of sample – negative control)/(positive control – negative control)].
# A. baumannii [6] = system: A. baumannii; parameters: method as in Visca et al., 2013; de Léséleuc et al., 2012; details: ref Visca et al., 2013; de Léséleuc et al., 2012; cited from earlier work
# P. aeruginosa = details: 2012, 2013, cited from earlier work
# [7] = HPLC-purified ferribactin, concentration gradient
compound,measurement,setting,value
CC(=O)N(O)CCCCCNC(=O)CCC(=O)N(O)CCCCCNC(=O)CCC(=O)N(O)CCCCCN [desferoxamine],iron affinity,"[1]; ref Elalfy et al., 2023",10^27 M^–1
ferribactin [reference compound],growth inhibition,"A. baumannii [2]; HPLC-purified ferribactin, concentration gradient, CAA medium",no growth inhibition
same,growth inhibition,K. pneumoniae [3]; [7],no growth inhibition
same,growth inhibition,P. aeruginosa PAO1,no growth inhibition
same,growth inhibition,S. aureus JE2; [7],no growth inhibition
CC(NC(=O)C(NC(=O)C(CO)NC(=O)C(NC(=O)C(N)CCCCNC(=O)C(CC(=O)O)NC(=O)C1CCN=C2C(NC(=O)CCC(=O)O)=Cc3cc(O)c(O)cc3N21)C(O)C(=O)O)C(C)O)C(=O)NC(C(=O)NC(CCCCN)C(=O)NC1CCCN(O)C1=O)C(C)O (stereo not shown) [pyoverdine s3b09] (H-K([Asp-X1])[ξAsp(3ξ-OH)]STATK-{NH(1-OH-2-oxopiperidin-3-yl)}; configuration not given here),IC50,"A. baumannii [2]; Acinetobacter baumannii, HPLC-purified pyoverdine, CAA medium, growth relative to untreated control",5.04 µg/mL
same,inhibition of A. baumannii with iron supplementation,A. baumannii [2]; CAA medium + 40 µM FeCl3,greatly reduced
same,inhibition of A. baumannii with iron supplementation,A. baumannii [2]; CAA medium + 200 µM FeCl3,completely stalled
same,growth reduction (model fit),K. pneumoniae [3]; HPLC-purified pyoverdine,9–12%
same,growth reduction (model fit),K. pneumoniae [3]; crude-purified pyoverdine,9–12%
same,relationship between pyoverdine concentration and time-to-death,"K. pneumoniae [4]; relative concentrations 0-0.1, quadratic term significant",hump-shaped
same,"reduction of the risk of death, significance","A. baumannii [5]; same tendency observed, z = –1.496, p=0.135",not significant
same,IC50,"S. aureus JE2; Staphylococcus aureus, JE2, HPLC-purified pyoverdine, growth relative to untreated control",12.2 µg/mL
same,"hemolysis at 1 h, 1 relative concentration",in vitro,5.92%
acinetobactin,iron association constant,[1],10^26 M^–1
fimsbactin,iron association constant,[1],10^27 M^–1
Cc1c(O)c(=O)ccn1C [deferiprone],growth suppression at sub-MIC levels,A. baumannii [6],only partially suppressed the growth
same,minimum inhibitory concentration (MIC) relative to plasma levels in human therapy,"P. aeruginosa; ref Thompson et al., Visca et al.",up to 36.7 times
same,growth suppression at sub-MIC levels,"P. aeruginosa; ref Visca et al., de Léséleuc et al.",only partially suppressed the growth
pyoverdine,"iron affinity (Ka, association constant)","[1]; ref Meyer and Abdallah, 1978",10^32 M^–1
O=C(N[C@H]1COC(=O)[C@@H](NC(=O)c2cccc(O)c2O)COC(=O)[C@@H](NC(=O)c2cccc(O)c2O)COC1=O)c1cccc(O)c1O [enterobactin],iron affinity,"[1]; ref Harris et al., 1979",10^52 M^–1
CC(O)C(NC(=O)C(CO)NC(=O)C(NC(=O)C(N)CCCCNC(=O)C(CC(=O)O)NC(=O)C1CCN=C2C(NC(=O)CCC(=O)O)=Cc3cc(O)c(O)cc3N21)C(O)C(=O)O)C(=O)NC(CO)C(=O)NC(CCCCN)C(=O)NC1CCCN(O)C1=O (stereo not shown) [pyoverdine 3A06] (H-K([Asp-X1])[ξAsp(3ξ-OH)]STSK-{NH(1-OH-2-oxopiperidin-3-yl)}; configuration not given here),growth reduction (model fit),K. pneumoniae [3]; crude-purified pyoverdine,9–12%
same,reduction of the risk of death (hazard) vs untreated infection,"K. pneumoniae [4]; relative concentration 0.01, injected 4 hr post infection, 48 hr, Cox regression",51.5%
same,reduction of the risk of death (hazard) vs untreated infection,"A. baumannii [5]; relative concentration 0.05, 48 hr, Cox regression",57.9%
same,"hemolysis at 1 h, 1 relative concentration",in vitro,2.01%
